Results: patent US8759400B2, “Histone deacetylase inhibitors for enhancing activity of antifungal agents” (MethylGene Inc., priority 2005, dated 2014)
In brackets after ≈: the same amount, converted by molar mass. Where two headings read alike, the source gives them in different places.

Tested on: C. glabrata parent strain (ATCC 90030) and C. glabrata mutants
Test: microbe, parasite or virus in culture
Assay type: cell-based
Conditions: for MIC80: C. glabrata parent strain
[1] = C. glabrata (ATCC 90030) parent strain

SMILES	MIC80 (Nakaseomyces glabratus, ATCC90030, azole alone) [µg/mL]	MIC (Nakaseomyces glabratus, ATCC90030, read-out: fluconazole MIC in presence of Compound 4, fluconazole-resistant mutants) [µg/mL]	MIC (Nakaseomyces glabratus, ATCC90030, read-out: fluconazole MIC in presence of Compound 4, susceptible parent) [µg/mL]	MIC80 (azole alone) [µg/mL]	4-fold synergy Fluconazole/Cpd 4 [1]	4-fold synergy Itraconazole/Cpd 4 [1]	Compound 4 concentration for synergy with azoles (itraconazole, fluconazole, all azole-resistant mutants tested) [µg/mL]	Compound 4 concentration lowering itraconazole MIC80 (itraconazole-resistant mutants) [µg/mL]
OC(Cn1cncn1)(Cn1cncn1)c1ccc(F)cc1F [fluconazole]	32 (≈ 104 µM)	4 to 32	4 to 8	32 to 64	–	–	–	–
O=C(Cc1ccc(CCCCc2ccccc2)cc1)NO [Cpd 4]	–	–	–	–	0.25–0.5 ug/ml Cpd 4	0.25–0.5 ug/ml Cpd 4	≤ 4	≤ 44
